Patent publication US10045530B2, “Agricultural pheromone compositions comprising positional isomers” (PROVIVI, INC., priority 2015, dated 2018)
Like-named read-outs stand apart in the source and are kept apart here.

Key:
[1] = system: alkB2 Gordonia sp TF6; settings: terminal hydroxylation; 100% relative activity obtained with hexane; cited from earlier work
[2] = system: CYP153A P. sp.; settings: cited from earlier work
[3] = biological target: T1, AlkB P. putida GPo1 (Ectopseudomonas oleovorans, UniProt P12691); settings: terminal hydroxylation; by alkane/FA chain length; cited from earlier work
T1 sequence (P12691 1-401): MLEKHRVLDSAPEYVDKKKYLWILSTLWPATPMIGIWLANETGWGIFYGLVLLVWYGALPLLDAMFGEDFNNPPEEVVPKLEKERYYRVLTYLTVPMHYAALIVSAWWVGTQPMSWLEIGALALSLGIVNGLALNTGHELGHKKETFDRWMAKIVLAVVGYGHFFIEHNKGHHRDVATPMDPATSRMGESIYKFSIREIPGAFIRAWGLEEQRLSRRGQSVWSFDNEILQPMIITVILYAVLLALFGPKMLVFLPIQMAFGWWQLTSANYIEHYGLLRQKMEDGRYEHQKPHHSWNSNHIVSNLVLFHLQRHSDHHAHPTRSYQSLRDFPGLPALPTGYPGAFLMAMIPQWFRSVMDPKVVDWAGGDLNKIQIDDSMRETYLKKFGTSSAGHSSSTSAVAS

[4] = system: CYP153A6; settings: cited from earlier work
[5] = system: CYP153A16; settings: cited from earlier work
[6] = biological target: T2, CYP52A4 (Candida maltosa, UniProt P16141); settings: terminal hydroxylation; by alkane/FA chain length; cited from earlier work
T2 sequence (P16141 1-538): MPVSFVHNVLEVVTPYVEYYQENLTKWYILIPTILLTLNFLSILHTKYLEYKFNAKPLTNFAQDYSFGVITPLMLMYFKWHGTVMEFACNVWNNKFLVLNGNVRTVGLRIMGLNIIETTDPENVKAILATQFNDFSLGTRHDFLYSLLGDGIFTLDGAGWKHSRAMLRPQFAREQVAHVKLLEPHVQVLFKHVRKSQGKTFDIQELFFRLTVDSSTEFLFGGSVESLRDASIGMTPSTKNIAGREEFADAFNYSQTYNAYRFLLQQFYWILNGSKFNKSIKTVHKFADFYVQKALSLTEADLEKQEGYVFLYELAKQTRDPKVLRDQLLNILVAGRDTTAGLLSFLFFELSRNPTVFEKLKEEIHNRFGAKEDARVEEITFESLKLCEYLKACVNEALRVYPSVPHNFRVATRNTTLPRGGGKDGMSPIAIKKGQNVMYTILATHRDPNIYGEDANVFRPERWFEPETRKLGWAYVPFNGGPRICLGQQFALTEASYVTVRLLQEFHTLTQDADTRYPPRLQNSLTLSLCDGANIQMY

[7] = system: CYP52A21; settings: cited from earlier work
[8] = biological target: T3, CYP52A3 (Candida maltosa, UniProt P16496); settings: terminal hydroxylation; by alkane/FA chain length; cited from earlier work
T3 sequence (P16496 2-523 limits assumed): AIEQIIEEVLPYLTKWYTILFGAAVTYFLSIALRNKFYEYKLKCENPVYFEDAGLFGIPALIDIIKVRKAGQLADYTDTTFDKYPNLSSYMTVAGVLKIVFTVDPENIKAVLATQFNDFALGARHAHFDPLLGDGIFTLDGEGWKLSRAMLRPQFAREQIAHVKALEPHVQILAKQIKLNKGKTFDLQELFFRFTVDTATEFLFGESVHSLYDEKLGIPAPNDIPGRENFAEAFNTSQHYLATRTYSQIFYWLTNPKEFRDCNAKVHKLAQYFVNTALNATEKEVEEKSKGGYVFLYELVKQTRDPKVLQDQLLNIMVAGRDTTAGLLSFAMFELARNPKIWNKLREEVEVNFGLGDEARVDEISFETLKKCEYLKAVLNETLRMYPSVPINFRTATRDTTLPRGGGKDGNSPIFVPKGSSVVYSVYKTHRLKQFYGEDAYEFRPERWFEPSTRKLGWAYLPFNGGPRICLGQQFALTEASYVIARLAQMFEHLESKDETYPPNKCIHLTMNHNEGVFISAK

[9] = biological target: T4, LadA (Geobacillus thermodenitrificans, UniProt A4IU28); settings: terminal hydroxylation; by alkane/FA chain length; cited from earlier work
T4 sequence (A4IU28 1-440): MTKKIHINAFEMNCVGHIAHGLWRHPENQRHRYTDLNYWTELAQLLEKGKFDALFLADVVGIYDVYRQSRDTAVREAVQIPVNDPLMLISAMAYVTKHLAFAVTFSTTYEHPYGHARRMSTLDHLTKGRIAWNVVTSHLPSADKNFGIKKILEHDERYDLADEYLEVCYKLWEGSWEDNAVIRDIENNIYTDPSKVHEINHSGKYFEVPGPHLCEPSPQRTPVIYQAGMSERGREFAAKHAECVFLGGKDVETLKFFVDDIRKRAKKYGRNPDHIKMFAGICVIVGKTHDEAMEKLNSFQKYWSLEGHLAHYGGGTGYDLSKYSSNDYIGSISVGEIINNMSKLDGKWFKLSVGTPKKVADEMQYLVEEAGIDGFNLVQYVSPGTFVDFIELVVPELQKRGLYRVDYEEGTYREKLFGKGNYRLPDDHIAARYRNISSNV

[10] = system: Helicoverpa zea; assay: Wind tunnel bioassay: upwind flight and lure location of male moths; type: in vivo; settings: conclusions from 8.1-8.2
Procedure: Four separate experiments were conducted with the moth Helicoverpa zea and its respective pheromone components (Z-11-hexadecenal, Z-9-hexadecenal). Further, the addition of Z-5-hexadecenal, the positional isomer of the natural insect Z-11-hexadecenal pheromone, was also added to the Z-11 and Z-9 blends and tested. Upwind flight and lure location of male moths were compared for: natural ratios of pheromone (97% Z-11-hexadecenal with 3% of Z-9-hexadecenal) with and without addition of the Z-5-hexadecenal positional isomer at various ratios.
Moths (4-6 day-old males in second half of scotophase) were flown in a glass wind tunnel (120×30×30 cm). A fan pushed air into the wind tunnel at 0.4 m sec^−1 and a second fan exhausted air at a similar rate. To provide visual cues for navigation, the floor was covered with light colored construction paper on which small (2-5 cm) circles were drawn with marker (Experiment 1) or light colored circles that were cut from light colored construction paper were placed on the floor (Experiments 2-4). Lures were made with Soxhlet-extracted, grey-rubber septa from West. […]
A moth in a release cage was held on a platform 20 cm above the floor for 15 s in the plume of pheromone and then released by turning open end of the cage toward upwind. […] Flights were recorded on video and data were collected from videos. […]

[11] = terminal hydroxylation, by alkane/FA chain length

SMILES | Relative activity, alkB2 Gordonia sp TF6 (Fujii et al., 2004, Biosci. Biotechnol. Biochem. 68: 2171-2177) [1] [%] | Relative activity, CYP52A4 (Scheller et al., 1996, Arch. Biochem Biophys. 328: 245-254) [6] | Relative activity, CYP52A3 (Scheller et al., 1996, Arch. Biochem Biophys. 328: 245-254) [8] | Relative activity, LadA (Feng et al., 2007, Proc. Natl. Acad. Sci. U.S.A. 104: 5602-5607) [9] | other results
CCCCCCCC [C8] | 72 | – | – | – | Relative activity, CYP153A P. sp. (Scheps et al., 2011, Org. Biomol. Chem. 9: 6727-6733) [2]: 100; Relative activity, AlkB P. putida GPo1 (Vanbeilen et al., 1994, Enzyme Microb. Technol. 16: 904-911) [3]: 95; Relative activity, CYP153A6 (Funhoff et al., 2006, J. Bacteriol. 188: 5220-5227) [4]: 100; Relative activity, CYP153A16 (Scheps et al., 2011, Org. Biomol. Chem. 9: 6727-6733) [5]: 100
CCCCCCCCC [C9] | 63 | – | – | – | Relative activity, CYP153A P. sp. (Scheps et al., 2011, Org. Biomol. Chem. 9: 6727-6733) [2]: 69; Relative activity, AlkB P. putida GPo1 (Vanbeilen et al., 1994, Enzyme Microb. Technol. 16: 904-911) [3]: 100; Relative activity, CYP153A6 (Funhoff et al., 2006, J. Bacteriol. 188: 5220-5227) [4]: 82; Relative activity, CYP153A16 (Scheps et al., 2011, Org. Biomol. Chem. 9: 6727-6733) [5]: 29
CCCCCCCCCC [C10] | 66 | – | – | – | Relative activity, CYP153A P. sp. (Scheps et al., 2011, Org. Biomol. Chem. 9: 6727-6733) [2]: 60; Relative activity, AlkB P. putida GPo1 (Vanbeilen et al., 1994, Enzyme Microb. Technol. 16: 904-911) [3]: 60; Relative activity, CYP153A6 (Funhoff et al., 2006, J. Bacteriol. 188: 5220-5227) [4]: 23; Relative activity, CYP153A16 (Scheps et al., 2011, Org. Biomol. Chem. 9: 6727-6733) [5]: 13
CCCCCCCCCCC [C11] | 48 | – | – | – | Relative activity, CYP153A P. sp. (Scheps et al., 2011, Org. Biomol. Chem. 9: 6727-6733) [2]: <6; Relative activity, AlkB P. putida GPo1 (Vanbeilen et al., 1994, Enzyme Microb. Technol. 16: 904-911) [3]: 6; Relative activity, CYP153A6 (Funhoff et al., 2006, J. Bacteriol. 188: 5220-5227) [4]: 1; Relative activity, CYP153A16 (Scheps et al., 2011, Org. Biomol. Chem. 9: 6727-6733) [5]: <8
CCCCCCCCCCCC(=O)O [C12 FA (lauric)] | – | 100 | 20 | – | Relative activity, CYP52A21 (Kim et al., 2007, Arch. Biochem. Biophys. 464: 213-220) [7, 11]: 100
CCCCCCCCCCCC [C12] | 34 | 37 | 41 | – | –
CCCCCCCCCCCCCC(=O)O [C14 FA (Myristic)] | – | – | – | – | Relative activity, CYP52A21 (Kim et al., 2007, Arch. Biochem. Biophys. 464: 213-220) [7]: 86
CCCCCCCCCCCCCCC [C15] | – | – | – | 83 | –
CCCCCCCCCCCCCCCC(=O)O [C16 FA (Palmetic)] | – | 18 | 35 | – | Relative activity, CYP52A21 (Kim et al., 2007, Arch. Biochem. Biophys. 464: 213-220) [7, 11]: 29
CCCCCCCCCCCCCCCC [C16] | – | 33 | 100 | 100 | –
CCCCCCCCCCCCCCCCCC(=O)O [C18 FA (Stearic)] | – | 1 | 30 | – | –
CCCCCCCCCCCCCCCCCC [C18] | – | 20 | 48 | 78 | –
CCCCCCCCCCCCCCCCCCCCCC [C22] | – | – | – | 74 | –
CCCCCCCCCCCCCCCCCCCCCCCC [C24] | – | – | – | 65 | –
CCCCCCCCCC/C=C\CCCC=O [Z-5-hexadecedenal, Z-5-hexadecenal] | – | – | – | – | upwind flight response [10]: triggers a similar upwind flight response
